Key:
[1] = biological target: human orexin-1 receptor (Homo sapiens (Human), UniProt O43613); experiment: In vitro assay: intracellular calcium measurements (FLIPR), antagonistic activity; type: cell-based; details: CHO cells expressing human orexin-1 receptor, orexin-A agonist, geometric mean, read-out: IC50 Ox1
Method: (§1) In Vitro Assay: Intracellular Calcium Measurements:
(§2) Chinese hamster ovary (CHO) cells expressing the human orexin-1 receptor and the human orexin-2 receptor, respectively, are grown in culture medium (Ham F-12 with L-Glutamine) containing 300 μg/ml G418, 100 U/ml penicillin, 100 μg/ml streptomycin and 10% heat inactivated fetal calf serum (FCS). The cells are seeded at 20,000 cells/well into 384-well black clear bottom sterile plates (Greiner). The seeded plates are incubated overnight at 37° C. in 5% CO2.
(§3) Human orexin-A as an agonist is prepared as 1 mM stock solution in MeOH: water (1:1), diluted in HBSS containing 0.1% bovine serum albumin (BSA), NaHCO3: 0.375 g/l and 20 mM HEPES for use in the assay at a final concentration of 3 nM.
(§4) Antagonists are prepared as 10 mM stock solution in DMSO, then diluted in 384-well plates using DMSO followed by a transfer of the dilutions into in HBSS containing 0.1% bovine serum albumin (BSA), NaHCO3: 0.375 g/l and 20 mM HEPES. On the day of the assay, 50 μl of staining buffer (HBSS containing 1% FCS, 20 mM HEPES, NaHCO3: 0.375 g/l, 5 mM probenecid (Sigma) and […] of the fluorescent calcium indicator fluo-4 AM (1 mM stock solution in DMSO, containing 10% pluronic) is added to each well. The 384-well cell-plates are incubated for 50 min at 37° C. in 5% CO2 followed by equilibration at RT for 30 min before measurement.
(§5) Within the Fluorescent Imaging Plate Reader (FLIPR Tetra, Molecular Devices), antagonists are added to the plate in a volume of 10 μl/well, incubated for 120 min and finally 10 μl/well of agonist is added. Fluorescence is measured for each well at 1 second intervals, and the height of each fluorescence peak is compared to the height of the fluorescence peak induced by an approximate EC70 (for example 5 nM) of orexin-A with vehicle in place of antagonist. The IC50 value (the concentration of compound needed to inhibit 50% of the agonistic response) is determined and may be normalized using the obtained IC50 value of a on-plate reference compound. Optimized conditions are achieved by adjustment of pipetting speed and cell splitting regime. The calculated IC50 values may fluctuate depending on the daily cellular assay performance. Fluctuations of this kind are known to those skilled in the art. Average IC50 values from several measurements are given as geometric mean values.

[2] = biological target: human orexin-2 receptor (Homo sapiens (Human), UniProt O43614); experiment: as above; type: cell-based; details: CHO cells expressing human orexin-2 receptor, orexin-A agonist, geometric mean, read-out: IC50 Ox2
Method: as §1, §2, §3, §4, §5

Chain of human orexin-1 receptor (O43613 whole entry): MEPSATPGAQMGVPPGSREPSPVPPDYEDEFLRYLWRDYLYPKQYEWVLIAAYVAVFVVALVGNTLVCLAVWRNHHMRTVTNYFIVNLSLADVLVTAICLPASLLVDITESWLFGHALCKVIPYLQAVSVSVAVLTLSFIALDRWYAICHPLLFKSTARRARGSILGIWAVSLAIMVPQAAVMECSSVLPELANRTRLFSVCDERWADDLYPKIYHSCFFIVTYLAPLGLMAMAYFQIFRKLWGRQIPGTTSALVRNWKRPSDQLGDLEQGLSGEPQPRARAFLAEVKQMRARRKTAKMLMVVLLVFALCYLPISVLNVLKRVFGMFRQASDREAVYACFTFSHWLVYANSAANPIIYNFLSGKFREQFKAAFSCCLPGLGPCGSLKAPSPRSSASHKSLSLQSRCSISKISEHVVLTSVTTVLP
Chain of human orexin-2 receptor (O43614 whole entry): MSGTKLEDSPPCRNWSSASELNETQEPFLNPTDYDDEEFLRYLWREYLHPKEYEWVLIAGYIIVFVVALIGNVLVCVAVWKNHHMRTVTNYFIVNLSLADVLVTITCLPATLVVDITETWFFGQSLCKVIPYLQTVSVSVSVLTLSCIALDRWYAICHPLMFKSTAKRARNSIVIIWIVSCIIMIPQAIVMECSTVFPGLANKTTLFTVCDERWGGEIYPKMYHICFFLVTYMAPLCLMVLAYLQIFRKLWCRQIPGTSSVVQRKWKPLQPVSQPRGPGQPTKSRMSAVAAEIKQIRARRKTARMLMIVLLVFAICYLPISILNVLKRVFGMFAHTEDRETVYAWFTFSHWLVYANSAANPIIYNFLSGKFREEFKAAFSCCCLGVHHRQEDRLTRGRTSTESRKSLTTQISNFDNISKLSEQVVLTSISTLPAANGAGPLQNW

| Structure (SMILES) | IC50 [1] [nM] | IC50 [2] [nM] |
| --- | --- | --- |
| CSc1ccc2[nH]c([C@@H]3CCCN3C(=O)c3cc(C)ccc3-n3cccn3)nc2c1 [Ex. 1.177] | 842 | 30 |
| CSc1cccc2nc([C@@H]3CCCN3C(=O)c3nc(C4CC4)sc3-c3ccc(C)cc3)[nH]c12 [Ex. 1.68] | 7 | 8 |
| CSc1cccc2nc([C@@H]3CCCN3C(=O)c3cncnc3-c3cccc(C)c3)[nH]c12 [Ex. 1.88] | 102 | 109 |
| C=C1CN(C(=O)c2nc(C)sc2-c2ccc(C)cc2)C(C)(c2nc3cc(OC)ccc3[nH]2)C1 (centres unmarked) [Ex. 6.148] | 19 | 40 |
| Cc1nc(C(=O)N2CCCC2c2nc3c(CO)cccc3[nH]2)c(-c2ccccc2)s1 (centres unmarked) [Ex. 1.128] | 1480 | 331 |
| COc1ccc(-n2nccn2)c(C(=O)N2CCC[C@@]2(C)c2nc3cc(C(F)(F)F)c(Cl)cc3[nH]2)c1F [Ex. 5.146] | 15 | 43 |
| COc1cc2nc([C@]3(C)CCCN3C(=O)c3ccc(C)cc3-n3nccn3)[nH]c2cc1OC [Ex. 5.70] | 31 | 83 |
| Cc1nc(C(=O)N2CCC[C@@]2(C)c2nc3cccc(C)c3[nH]2)c(-c2ccccc2)s1 [Example 5.1, (S)-(2-methyl-2-(7-methyl-1H-benzo[d]imidazol-2-yl)pyrrolidin-1-yl)(2-methyl-5-phenylthiazol-4-yl)methanone] | 26 | 13 |
| COc1ccc2nc([C@@H]3CCCN3C(=O)c3nc(C4CC4)sc3-c3ccc(C)cc3)[nH]c2c1 [Ex. 1.23] | 523 | 212 |
| Cc1ccc(-c2ncccn2)c(C(=O)N2CC[C@H](C)[C@H]2c2nc3cc(Cl)c(C)cc3[nH]2)c1 [Ex. 4.180] | 8 | 304 |
| Cc1nc(C(=O)N2CC[C@H](C)[C@H]2c2nc3c(Cl)cccc3[nH]2)c(-c2ccc(Br)cc2)s1 [Ex. 4.123] | 21 | 871 |
| C=C1C[C@@H](c2nc3c(SC)cccc3[nH]2)N(C(=O)c2nc(C)sc2-c2ccc(C)c(C)c2)C1 [Ex. 6.49] | 3 | 1 |
| CSc1ccc2nc([C@@H]3CCCN3C(=O)c3nc(C)sc3-c3cccc(C(F)(F)F)c3)[nH]c2c1 [Ex. 1.38] | 360 | 110 |
| Cc1ccc(-n2nccn2)c(C(=O)N2CCC[C@@]2(C)c2nc3c(Br)cc(F)cc3[nH]2)c1 [Ex. 5.25] | 27 | 81 |
| C[C@@]1(c2nc3cc(Cl)c(C(F)(F)F)cc3[nH]2)CCCN1C(=O)c1nc(-c2ccc(F)cc2)sc1-c1ccc(F)cc1 [Ex. 5.291] | 48 | 347 |
| COc1cc2nc([C@]3(C)CCCN3C(=O)c3nc(C)sc3-c3ccc(Cl)cc3)[nH]c2cc1OC [Ex. 5.79] | 43 | 97 |
| CSc1ccc2nc([C@@H]3CCCN3C(=O)c3cncnc3-c3ccc(C)c(C)c3)[nH]c2c1 [Ex. 1.53] | 616 | 90 |
| Cc1nc(C(=O)N2CC[C@H](C)[C@H]2c2nc3cc(C)c(C)cc3[nH]2)c(-c2cc(F)cc(F)c2)s1 [Ex. 4.89] | 3 | 2170 |

| Structure (SMILES) | IC50 [1] [nM] | IC50 [2] [nM] |
| --- | --- | --- |
| Cc1ccc(-c2cccc(C(F)(F)F)c2)c(C(=O)N2CCC[C@@]2(C)c2nc3cc(C(F)(F)F)c(Cl)cc3[nH]2)c1 [Ex. 5.155] | 134 | 249 |
| CSc1cccc2nc([C@@H]3CCCN3C(=O)c3cncnc3-c3ccc(C)c(C)c3)[nH]c12 [Ex. 1.83] | 17 | 36 |
| COc1cccc(-c2nc(C)ncc2C(=O)N2CCC[C@H]2c2nc3cccc(SC)c3[nH]2)c1 [Ex. 1.86] | 56 | 118 |
| Cc1nc(C(=O)N2CCCC2c2nc3c4c(ccc3[nH]2)OCCO4)c(-c2cccc(Cl)c2)s1 (racemic) [Ex. 1.117] | 136 | 56 |
| Cc1nc(C(=O)N2CC(F)(F)C[C@H]2c2nc3c(C)c(Cl)ccc3[nH]2)c(-c2ccccc2)s1 [Ex. 2.8] | 70 | 51 |
| Cc1ccc(-n2nccn2)c(C(=O)N2CCC[C@@]2(C)c2nc3cc(C(F)(F)F)ccc3[nH]2)c1 [Ex. 5.9] | 8 | 81 |
| Cc1nc(C(=O)N2CCCC2c2nc3c(C)c(Cl)ccc3[nH]2)c(-c2ccccc2)s1 (centres unmarked) [Ex. 1.133] | 4 | 11 |
| CCn1c([C@]2(C)CCCN2C(=O)c2ccc(C)cc2-n2nccn2)nc2cc(C)c(C)cc21 [Ex. 7.12] | 15 | 52 |
| C=C1C[C@@H](c2nc3cc(C)c(C)cc3n2C)N(C(=O)c2cc(C)ccc2-n2nccn2)C1 [Ex. 7.2] | 420 | 69 |
| Cc1c(Cl)ccc2[nH]c([C@]3(C)CCCN3C(=O)c3nc(-c4cccc(C#N)c4)sc3-c3ccc(F)cc3)nc12 [Ex. 5.255] | 1 | 145 |
| Cc1cc(C(=O)N2CCC[C@@]2(C)c2nc3cc(C(F)(F)F)c(Cl)cc3[nH]2)c(-n2nccn2)cc1C [Ex. 5.137] |  | 6 |
| Cc1nc(C(=O)N2CCCC2c2nc3cc(F)c(Cl)cc3[nH]2)c(-c2cccc(Cl)c2)s1 (centres unmarked) [Ex. 1.98] | 105 |  |
| Cc1ccc(-c2ncccn2)c(C(=O)N2CCC[C@@]2(C)c2nc3ccc(F)c(F)c3[nH]2)c1 [Ex. 5.283] | 87 |  |
| Cc1nc(C(=O)N2CCC[C@@]2(C)c2nc3c(C)c(C)c(Br)cc3[nH]2)c(-c2cc(F)cc(F)c2)s1 [Ex. 5.274] |  | 8 |
| Cc1nc(C(=O)N2CC[C@H](C)[C@H]2c2nc3cc(C(F)(F)F)ccc3[nH]2)c(-c2ccc(C)c(C)c2)s1 [Ex. 4.145] |  | 635 |
| Cc1ccc(-c2sc(C)nc2C(=O)N2CC[C@H](C)[C@H]2c2nc3c(C(F)(F)F)cccc3[nH]2)cc1 [Ex. 4.153] |  | 80 |
| Cc1ccc(-c2ncccn2)c(C(=O)N2CCC[C@@]2(C)c2nc3cc(C(F)(F)F)c(Cl)cc3[nH]2)c1 [Ex. 5.279] |  | 8 |

Continued, values first:

| IC50 [1] [nM] | IC50 [2] [nM] | Structure (SMILES) |
| --- | --- | --- |
| 134 | 7 | C=C1C[C@@H](c2nc3cc(C)c(C)cc3[nH]2)N(C(=O)c2c(F)cccc2-n2nccn2)C1 [Ex. 6.191] |
| 8 | 113 | Cc1cc2[nH]c([C@@H]3[C@@H](C)CCN3C(=O)c3ccccc3-n3nccn3)nc2cc1Cl [Ex. 4.76] |
| 98 | 57 | COc1cc2nc([C@]3(C)CCCN3C(=O)c3ccccc3-n3nccn3)[nH]c2cc1OC [Ex. 5.73] |
| 96 | 4 | CO[C@@H]1C[C@@H](c2nc3ccc(Cl)c(C)c3[nH]2)N(C(=O)c2ccc(C)cc2-n2nccn2)C1 [Ex. 3.15] |
| 37 | 3 | CSc1cccc2nc([C@@H]3CCCN3C(=O)c3ccc(C)cc3-n3nccn3)[nH]c12 [Ex. 1.169] |
| 66 | 21 | CSc1ccc2nc([C@@H]3CCCN3C(=O)c3cnc(C)nc3-c3cccc(Cl)c3)[nH]c2c1 [Ex. 1.51] |
| 333 | 9 | C=C1C[C@@H](c2nc3cccc(C)c3[nH]2)N(C(=O)c2nc(C)ccc2-n2nccn2)C1 [Ex. 6.115] |
| 330 | 7 | C=C1C[C@@H](c2nc3cc(C(C)(C)C)ccc3[nH]2)N(C(=O)c2ccccc2-n2nccn2)C1 [Ex. 6.162] |
| 182 | 248 | COc1cc2nc([C@@H]3[C@@H](C)CCN3C(=O)c3cc(F)ccc3-n3nccn3)[nH]c2cc1OC [Ex. 4.41] |
| 674 | 23 | CO[C@@H]1C[C@@H](c2nc3ccc(Cl)c(C)c3[nH]2)N(C(=O)c2c(C)cccc2-n2nccn2)C1 [Ex. 3.14] |
| 193 | 395 | CO[C@H]1CN(C(=O)c2c(F)cccc2-n2nccn2)C(C)(c2nc3c(C)c(Cl)ccc3[nH]2)C1 (some centres unmarked) [Ex. 3.42] |
| 85 | 114 | Cc1cccc2[nH]c([C@]3(C)CCCN3C(=O)c3cc(Cl)ccc3-n3nccn3)nc12 [Ex. 5.49] |
| 1930 | 21 | COc1ccc2nc([C@@H]3C[C@@H](OC)CN3C(=O)c3cc(Cl)ccc3-n3nccn3)[nH]c2c1 [Ex. 3.19] |
| 2 |  | Cc1ccc(-n2nccn2)c(C(=O)N2CC[C@H](C)[C@H]2c2nc3c(C)c(Cl)ccc3[nH]2)c1F [Ex. 4.68] |
|  | 4 | CO[C@H]1CN(C(=O)c2cc(C)c(C)cc2-n2nccn2)C(C)(c2nc3c(C)c(Cl)ccc3[nH]2)C1 (some centres unmarked) [Ex. 3.48] |
| 117 |  | C[C@@]1(c2nc3cc(F)c(Br)cc3[nH]2)CCCN1C(=O)c1cc(F)ccc1-n1nccn1 [Ex. 5.126] |
